Test results reported in US20130011845A1, “MICRORNA REGULATING THE INSULIN SIGNALING PATHWAY, AND METHOD FOR SCREENING MATERIAL FOR CONTROLLING THE ACTION OF A TARGET THEREOF” (SNU R & DB Foundation, priority 2009, published 2013).

Key:
[1] = test system: ERBB2IP 3′UTR; assay: dual-luciferase 3′UTR reporter assay, pAC-ERBB2IP; type: cell-based; conditions: luciferase reporter with ERBB2IP 3′UTR, human Hela cell lines; average of at least two independent experiments
Description: (§1) In order to determine whether the target genes identified in Example 7 are in actuality targets of miR-8 and miR-200 family miRNAs, the inventors performed cloning. In other words, […] containing the miRNA target sites. Specifically, in order to obtain cDNAs of respective target genes, from drosophila S2 cell lines or human Hela cell lines, total RNA was extracted by using RNeasy mini kit (QIAGEN, US). 1 μg of total RNA and 1 μl of Oligo-dT (Invitrogen, US) were charged with up to 50 μl of distilled water, and placed into SuperScript First-Strand Synthesis System (Invitrogen, US), followed by RT-PCR reaction. Through the reaction at 65° C. for 6 min, at 4° C. for 5 min, at 42° C. for 60 min, at 95° C. for 5 min, and at 4° C. for 5 min, cDNA was synthesized. By using the cDNA (3˜5 μg) as template, and using a primer pair on respective genes noted in Table 3 and PCR Mastermix (Promega, US), PCR was performed on 3′UTR of ush, Lap1, CG8445, dbo, Lar, Ced-12, CG12333, cbt, FOG2, SEPT7, RIN2, SHC1, HOXB5, LF11, TCF7L1, ERBB21P, ELMO2, BAP1, WDR37, KLHL20, PTPRD, RASSF2 and VAC14 from among the target genes selected in Example 7. Herein, PCRP on atro as a drosophila control gene was also performed. After the reaction was completed, the PCR product on each gene's 3′UTR region was cleaved by each of the following restriction enzymes:
(§2) Then, it was cloned into pAC5.1 luciferase vector (a kind gift of Elisa Izaurralde) cleaved by the same restriction enzymes so as to produce a reporter plasmid having a miR-8 or miR-200 family target sequence in luciferase gene's 3′UTR sequence.
(§3) Reporter plasmids and renilla luciferase expression vectors (Promega, US), as noted in Table 4, and miRNAs of miR-200 family of miR-141, miR-200a (hsa-miR-200a, SEQ ID: 87: 5′-[…]-3′), miR-200b, miR-200c (has-miR-200c, SEQ ID: 88: 5′-[…]-3′) and miR-429, and miR-8 (dme-miR-8, SEQ ID: 89: 5′-[…]-3′) were bought from Samchonri and cotransfected into drosophila S2 cell lines or human Hela cell lines. Then, the activities of luciferase were measured through dual-luciferase assay (Promega, US) by a luminometer (Biorad). Then, 7 gene pairs that respond both to miR-8 and to mir-200 family miRNAs in Drosophila and human cells, respectively were identified (see FIG. 15).

[2] = test system: FOXO; assay: FOXO luciferase reporter (pFK1tk-luc) assay in Hep3B cells; type: cell-based, human
Description: The inventors analyzed the effect of miR-200 miRNAs on the downstream transducers of Akt (see FIGS. 44 to 47). Because Akt represses FOXO activity, the inventors used a luciferase reporter plasmid (pFK1tk-luc) (Biggs, W H et al., 1999, Proc Natl Acad Sci USA 96, 7421-7426) containing eight FOXO-binding sites to determine the level of FOXO activity in cultured cells. Specifically, Hep3B cells were transfected with synthesized siGFP, miR-141, miR-200a, miR-200b, miR-200c, miR-429 or siFOG2 together with pFK1tk-luc vector, and then luciferase activity was measured in the same manner as described Example 8-2. Also, Hep3B cells were transfected with luciferase, or oligonucleotides having complementary sequence to miR-141, miR-200a, miR-200b, miR-200c or miR-429 together with pFK1tk-luc vector. Then, the luciferase activity was measured in the same manner as described above. Further, Hep3B cell lines were transfected with pCK-flag (empty vector) and pCK-FOG2 produced in Example 16-1, and the luciferase activity was measured in the same manner as described above. […] Further, treating the cells with miR-200 inhibitors elevated FOXO activity (see FIG. 46).

[3] = test system: KLF11 3′UTR; assay: dual-luciferase 3′UTR reporter assay, pAC-KLF11; type: cell-based; conditions: luciferase reporter with KLF11 3′UTR, human Hela cell lines; average of at least two independent experiments
Description: as §1, §2, §3

[4] = test system: PTPRD 3′UTR; assay: dual-luciferase 3′UTR reporter assay, pAC-PTPRD; type: cell-based; conditions: luciferase reporter with PTPRD 3′UTR, human Hela cell lines; average of at least two independent experiments
Description: as §1, §2, §3

[5] = test system: BAP1 3′UTR; assay: dual-luciferase 3′UTR reporter assay, pAC-BAP1; type: cell-based; conditions: luciferase reporter with BAP1 3′UTR, human Hela cell lines; average of at least two independent experiments
Description: as §1, §2, §3

[6] = test system: HOXB5 3′UTR; assay: dual-luciferase 3′UTR reporter assay, pAC-HOXB5; type: cell-based; conditions: luciferase reporter with HOXB5 3′UTR, human Hela cell lines; average of at least two independent experiments
Description: as §1, §2, §3

[7] = test system: KLHL20 3′UTR; assay: dual-luciferase 3′UTR reporter assay, pAC-KLHL20; type: cell-based; conditions: luciferase reporter with KLHL20 3′UTR, human Hela cell lines; average of at least two independent experiments
Description: as §1, §2, §3

[8] = test system: TCF7L1 3′UTR; assay: dual-luciferase 3′UTR reporter assay, pAC-TCF7L1; type: cell-based; conditions: luciferase reporter with TCF7L1 3′UTR, human Hela cell lines; average of at least two independent experiments
Description: as §1, §2, §3

[9] = test system: SEPT7 3′UTR; assay: dual-luciferase 3′UTR reporter assay, pAC-SEPT7; type: cell-based; conditions: luciferase reporter with SEPT7 3′UTR, human Hela cell lines; average of at least two independent experiments
Description: as §1, §2, §3

[10] = test system: Hep3B cells; assay: MTT cellular viability assay; type: cell-based, human; conditions: Hep3B cells transfected with 30 nM
Description: Because stimulation of PI3K and Akt is known to facilitate cell proliferation and antagonize apoptosis (Pollak, 2008), the inventors measured cellular viability with the MTT (3-(4,5-dimethylthiazol-2-yl)-2,5-diphenyltetrazolium bromide) assay in Hep3B cells. Specifically, Hep3B cells were plated in a 96-well plate, and transfected with 30 nM of synthesized siGFP, miR-141, miR-200a, miR-200b, miR-200c, miR-429 or siFOG2. Then, to the plate, 50 μl of MTT solution (2 mg/ml) (Promega, US) was added per each well, followed by culturing at 37 °C for 1 hour. Then, each well was added with 150 μl of DMSO, and measured by a microplate reader (Bio-rad, US) at a wavelength of 590 nm. Also, Hep3B cells were transfected with 200 nM of luciferase, or 200 nM of oligonucleotides having complementary sequences to miR-141, miR-200a, miR-200b, miR-200c or miR-429, and then were subjected to MTT assay in the same manner as described above.

Substance: 5′-UAACACUGUCUGGUAACGAUGU-3′ (listed as RNA, chemistry not given here) [miR-200a]
- Represion fold, ERBB2IP [1]: 1.18 fold
- FOXO activity (activity of luciferase, pFK1tk-luc) [2]: significantly repressed
- Represion fold, KLF11 [3]: 1.20 fold
- Represion fold, PTPRD [4]: 1.25 fold
- Represion fold, BAP1 [5]: 1.04 fold
- Represion fold, HOXB5 [6]: 1.16 fold
- Represion fold, KLHL20 [7]: 1.02 fold
- Represion fold, TCF7L1 [8]: 1.17 fold
- Represion fold, SEPT7 [9]: 0.97 fold
- cell viability (MTT) [10]: increased cell viability

Substance: 5′-UAAUACUGUCUGGUAAAACCGU-3′ (listed as RNA, chemistry not given here) [miR-429]
- Represion fold, ERBB2IP [1]: 0.54 fold
- FOXO activity (activity of luciferase, pFK1tk-luc) [2]: significantly repressed
- Represion fold, KLF11 [3]: 1.07 fold
- Represion fold, PTPRD [4]: 0.75 fold
- Represion fold, BAP1 [5]: 0.67 fold
- Represion fold, HOXB5 [6]: 0.72 fold
- Represion fold, KLHL20 [7]: 0.55 fold
- Represion fold, TCF7L1 [8]: 0.71 fold
- Represion fold, SEPT7 [9]: 1.14 fold
- cell viability (MTT) [10]: increased cell viability

Substance: 5′-UAACACUGUCUGGUAAAGAUGG-3′ (listed as RNA, chemistry not given here) [miR-141]
- Represion fold, ERBB2IP [1]: 0.7 fold
- FOXO activity (activity of luciferase, pFK1tk-luc) [2]: significantly repressed
- Represion fold, KLF11 [3]: 1.03 fold
- Represion fold, PTPRD [4]: 0.89 fold
- Represion fold, BAP1 [5]: 0.84 fold
- Represion fold, HOXB5 [6]: 0.92 fold
- Represion fold, KLHL20 [7]: 0.84 fold
- Represion fold, TCF7L1 [8]: 0.91 fold
- Represion fold, SEPT7 [9]: 1.00 fold
- cell viability (MTT) [10]: increased cell viability

Substance: 5′-UAAUACUGCCUGGUAAUGAUGA-3′ (listed as RNA, chemistry not given here) [miR-200b]
- Represion fold, ERBB2IP [1]: 0.57 fold
- FOXO activity (activity of luciferase, pFK1tk-luc) [2]: significantly repressed
- Represion fold, KLF11 [3]: 1.02 fold
- Represion fold, PTPRD [4]: 0.89 fold
- Represion fold, BAP1 [5]: 0.79 fold
- Represion fold, HOXB5 [6]: 0.73 fold
- Represion fold, KLHL20 [7]: 0.85 fold
- Represion fold, TCF7L1 [8]: 0.81 fold
- Represion fold, SEPT7 [9]: 0.95 fold
- cell viability (MTT) [10]: increased cell viability
